According to patent publication US10538491B2, “4,5-substituted picolinamide and picolinonitrile metabotropic glutamate receptor 2 negative allosteric modulators” (Vanderbilt University, priority 2015, dated 2020):

Target: rat mGlu2 (Rattus norvegicus (Rat), UniProt P31421)
Assay: mGlu2 Ca2+ flux assay
Assay type: cell-based
Conditions: for IC50: Gα15 HEK293 cells stably expressing rat mGlu2, glutamate EC80, >10,000 = no plateau, >30,000 = no measurable activity; for remaining activity at 30 µM: amplitude of response in the presence of 30 μM test compound as percentage of maximal response to glutamate, read-out: rat mGlu2 Glu max
Protocol: Gα15 HEK293 cells stably expressing rat mGlu2 were plated in black-walled, clear-bottomed, poly-D-lysine coated 384-well plates in 20 μL of assay medium (DMEM containing 10% dialyzed FBS, 20 mM HEPES, and 1 mM sodium pyruvate) at a density of 12K cells/well. The cells were grown overnight at 37° C. in the presence of 5% CO2. The next day, medium was removed and the cells incubated with 20 μL of 2.3 μM Fluo-4, AM prepared as a 2.3 mM stock in DMSO and mixed in a 1:1 ratio with 10% (w/v) pluronic acid F-127 and diluted in assay buffer (Hank's balanced salt solution, 20 mM HEPES, and 2.5 mM probenecid) for 45 minutes at 37° C. Dye was removed, 20 μL of assay buffer was added, and the plate was incubated for 5 minutes at room temperature.
Ca^2+ flux was measured using the Functional Drug Screening System (FDSS7000, Hamamatsu, Japan). After establishment of a fluorescence baseline for about 3 seconds, the compounds of the present invention were added to the cells, and the response in cells was measured. 2.3 minutes later an EC20 concentration of the mGlu2 receptor agonist glutamate was added to the cells, and the response of the cells was measured for 1.9 minutes; an EC80 concentration of agonist was added and readings taken for an additional 1.7 minutes. All test compounds were dissolved and diluted to a concentration of 10 mM in 100% DMSO. Compounds were then serially diluted 1:3 in DMSO into 10 point concentration response curves, transferred to daughter plates, and further diluted into assay buffer to a 2× stock. Calcium fluorescence measures were recorded as fold over basal fluorescence; raw data was then normalized to the maximal response to glutamate. Antagonism of the agonist response of the mGlu2 receptor in the present invention was observed as a decrease in response to nearly maximal concentrations of glutamate in the presence of compound compared to the response to glutamate in the absence of compound.
The raw data file containing all time points was used as the data source in the analysis template. This was saved by the FDSS as a tab-delimited text file. Data were normalized using a static ratio function (F/F0) for each measurement of the total 360 values per well divided by each well's initial value. Data were then reduced to peak amplitudes (Max−Initial Min) using a time range that starts approximately 3 seconds prior to the glutamate EC80 addition and continues for approximately 90 seconds. This is sufficient time to capture the peak amplitude of the cellular calcium response. Individual amplitudes were expressed as % ECMax by multiplying each amplitude by 100 and then dividing the product by the mean of the amplitudes derived from the glutamate ECMax-treated wells. IC50 values for test compounds were generated by fitting the normalized values versus the log of the test compound concentration (in mol/L) using a 4 parameter logistic equation where none of the parameters were fixed. Each of the three values collected at each concentration of test compound were weighted evenly.
For NAMs, potency (IC50) and maximum response (% Glu Max), i.e. the amplitude of response in the presence of 30 μM test compound as a percentage of the maximal response to glutamate, are reported. […] Compounds with no measurable activity are designated as “>30,000 nM” since the top concentration of compound tested in the assay is 30 μM.

Sequence of rat mGlu2 (P31421 19-872): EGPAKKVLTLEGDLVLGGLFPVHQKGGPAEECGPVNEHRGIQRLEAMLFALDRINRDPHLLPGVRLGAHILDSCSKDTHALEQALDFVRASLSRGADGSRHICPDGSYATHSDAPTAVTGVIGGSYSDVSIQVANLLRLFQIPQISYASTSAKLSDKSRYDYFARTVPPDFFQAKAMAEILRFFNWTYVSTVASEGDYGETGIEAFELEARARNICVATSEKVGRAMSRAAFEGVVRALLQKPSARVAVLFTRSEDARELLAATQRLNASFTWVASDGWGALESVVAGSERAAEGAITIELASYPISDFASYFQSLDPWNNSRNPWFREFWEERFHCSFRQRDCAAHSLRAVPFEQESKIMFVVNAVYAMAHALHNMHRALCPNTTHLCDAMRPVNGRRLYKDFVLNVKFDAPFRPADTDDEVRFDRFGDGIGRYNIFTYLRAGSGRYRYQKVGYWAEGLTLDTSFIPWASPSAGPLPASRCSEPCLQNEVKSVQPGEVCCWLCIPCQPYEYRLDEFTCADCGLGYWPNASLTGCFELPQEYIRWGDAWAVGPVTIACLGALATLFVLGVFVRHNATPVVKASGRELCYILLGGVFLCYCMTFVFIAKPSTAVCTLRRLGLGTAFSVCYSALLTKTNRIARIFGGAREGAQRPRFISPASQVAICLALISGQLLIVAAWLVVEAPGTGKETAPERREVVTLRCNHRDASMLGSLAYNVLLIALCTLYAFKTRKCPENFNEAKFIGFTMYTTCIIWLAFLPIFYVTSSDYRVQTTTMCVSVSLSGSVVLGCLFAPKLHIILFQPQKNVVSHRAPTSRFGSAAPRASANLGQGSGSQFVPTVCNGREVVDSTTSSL

Structure (SMILES)	IC50	remaining activity at 30 µM
NC(=O)c1cc(-c2ccc(F)cc2)c(OCc2cccc(Br)c2)cn1 [Compound 34, 5-((3-bromobenzyl)oxy)-4-(4-fluorophenyl)picolinamide]	1590 nM	10.1%
NC(=O)c1cc(-c2ccc(F)cc2)c(OCc2cccnc2)cn1 [Compound 38, 4-(4-fluorophenyl)-5-(pyridin-3-ylmethoxy)picolinamide]	507 ± 123 nM	5.84 ± 1.16%
COc1ccc(-c2cc(C(N)=O)ncc2OCc2cccnc2)c(F)c1 [Compound 39, 4-(2-fluoro-4-methoxyphenyl)-5-(pyridin-3-ylmethoxy)picolinamide]	39 nM	1.36%
NC(=O)c1cc(-c2ccc(C(F)(F)F)nc2)c(OCc2cccnc2)cn1 [Compound 40, 5′-(pyridin-3-ylmethoxy)-6-(trifluoromethyl)[3,4′-bipyridine]-2′-carboxamide]	> 30000 nM	
Cc1ccc(COc2cnc(C(N)=O)cc2-c2ccc(F)cc2)cn1 [Compound 41, 4-(4-fluorophenyl)-5-((6-methylpyridin-3-yl)methoxy)picolinamide]	343 nM	1.59%
Cc1cc(COc2cnc(C(N)=O)cc2-c2ccc(F)cc2)ccn1 [Compound 45, 4-(4-fluorophenyl)-5-((2-methylpyridin-4-yl)methoxy)picolinamide]	195 nM	1.17%
Cn1ccc(COc2cnc(C(N)=O)cc2-c2ccc(F)cc2)n1 [Compound 52, 4-(4-fluorophenyl)-5-((1-methyl-1H-pyrazol-3-yl)methoxy)picolinamide]	66 nM	0.93%
Cn1cc(COc2cnc(C(N)=O)cc2-c2ccc(F)cc2)cn1 [Compound 53, 4-(4-fluorophenyl)-5-((1-methyl-1H-pyrazol-4-yl)methoxy)picolinamide]	1000 nM	-0.46%
CN(CCOc1cnc(C(N)=O)cc1-c1ccc(F)cc1)c1ccnc(C(F)(F)F)c1 [Compound 55, 4-(4-fluorophenyl)-5-(2-(methyl(2-(trifluoromethyl)pyridin-4-yl)amino)ethoxy)picolinamide]	1580 nM	4.02%
NC(=O)c1cc(-c2ccc(F)cc2)c(OC2CN(c3ccnc(C(F)(F)F)c3)C2)cn1 [Compound 58, 4-(4-fluorophenyl)-5-((1-(2-(trifluoromethyl)pyridin-4-yl)azetidin-3-yl)oxy)picolinamide]	4140 nM	4.3%
Cc1ccc(OC(C)COc2cnc(C#N)cc2-c2ccc(F)cc2)cn1 (stereo not drawn) [Compound 62, 4-(4-fluorophenyl)-5-(2-((6-methylpyridin-3-yl)oxy)propoxy)picolinonitrile]	4630 nM	35.8%
CC(COc1cnc(C#N)cc1-c1ccc(F)cc1)Oc1ccnc(C(F)(F)F)c1 (stereo not drawn) [Compound 63, 4-(4-fluorophenyl)-5-(2-((2-(trifluoromethyl)pyridin-4-yl)oxy)propoxy)picolinonitrile]	> 10000 nM	30.7%
N#Cc1cc(-c2ccc(F)cc2)c(OCCCOc2cccnc2)cn1 [Compound 65, 4-(4-fluorophenyl)-5-(3-(pyridin-3-yloxy)propoxy)picolinonitrile]	> 10000 nM	68.8%
N#Cc1cc(-c2ccc(F)cc2)c(OCCCOc2ccc(C(F)(F)F)nc2)cn1 [Compound 66, 4-(4-fluorophenyl)-5-(3-((6-(trifluoromethyl)pyridin-3-yl)oxy)propoxy)picolinonitrile]	> 30000 nM	

Now from value to molecule:

IC50	remaining activity at 30 µM	Structure (SMILES)
1110 nM	1.55%	NC(=O)c1cc(-c2ccc(F)cc2)c(OCc2ccccc2Br)cn1 [Compound 35, 5-((2-bromobenzyl)oxy)-4-(4-fluorophenyl)picolinamide]
650 nM	3.82%	NC(=O)c1cc(-c2ccc(F)cc2)c(OCc2cc(Br)ccc2F)cn1 [Compound 36, 5-((5-bromo-2-fluorobenzyl)oxy)-4-(4-fluorophenyl)picolinamide]
1470 nM	3.54%	NC(=O)c1cc(-c2ccc(F)cc2)c(OCc2cc(F)cc(Br)c2)cn1 [Compound 37, 5-((3-bromo-5-fluorobenzyl)oxy)-4-(4-fluorophenyl)picolinamide]
266 nM	2.2%	COc1ccc(COc2cnc(C(N)=O)cc2-c2ccc(F)cc2)cn1 [Compound 42, 4-(4-fluorophenyl)-5-((6-methoxypyridin-3-yl)methoxy)picolinamide]
717 nM	0.74%	NC(=O)c1cc(-c2ccc(F)cc2)c(OCc2ccc(C(F)(F)F)nc2)cn1 [Compound 43, 4-(4-fluorophenyl)-5-((6-(trifluoromethyl)pyridin-3-yl)methoxy)picolinamide]
239 nM	0.42%	NC(=O)c1cc(-c2ccc(F)cc2)c(OCc2ccncc2)cn1 [Compound 44, 4-(4-fluorophenyl)-5-(pyridin-4-ylmethoxy)picolinamide]
204 nM	2.17%	COc1cc(COc2cnc(C(N)=O)cc2-c2ccc(F)cc2)ccn1 [Compound 46, 4-(4-fluorophenyl)-5-((2-methoxypyridin-4-yl)methoxy)picolinamide]
2710 nM	0.41%	CC(Oc1cnc(C(N)=O)cc1-c1ccc(F)cc1)c1cccnc1 (stereo not drawn) [Compound 47, 4-(4-fluorophenyl)-5-(1-(pyridin-3-yl)ethoxy)picolinamide]
504 nM	1.4%	CC(Oc1cnc(C(N)=O)cc1-c1ccc(F)cc1)c1ccncc1 (stereo not drawn) [Compound 48, 4-(4-fluorophenyl)-5-(1-(pyridin-4-yl)ethoxy)picolinamide]
1470 nM	-0.08%	NC(=O)c1cc(-c2ccc(F)cc2)c(OCc2cccnn2)cn1 [Compound 49, 4-(4-fluorophenyl)-5-(pyridazin-3-ylmethoxy)picolinamide]
129 nM	1.41%	NC(=O)c1cc(-c2ccc(F)cc2)c(OCc2ccc3nccn3c2)cn1 [Compound 50, 4-(4-fluorophenyl)-5-(imidazo[1,2-a]pyridin-6-ylmethoxy)picolinamide]
263 nM	1.01%	NC(=O)c1cc(-c2ccc(F)cc2)c(OCc2cncs2)cn1 [Compound 51, 4-(4-fluorophenyl)-5-(thiazol-5-ylmethoxy)picolinamide]
1370 nM	1.35%	NC(=O)c1cc(-c2ccc(F)cc2)c(OCCOc2cccnc2)cn1 [Compound 54, 4-(4-fluorophenyl)-5-(2-(pyridin-3-yloxy)ethoxy)picolinamide]
4190 nM	4.5%	NC(=O)c1cc(-c2ccc(F)cc2)c(OC2CCN(c3ccnc(C(F)(F)F)c3)CC2)cn1 [Compound 56, 4-(4-fluorophenyl)-5-((1-(2-(trifluoromethyl)pyridin-4-yl)piperidin-4-yl)oxy)picolinamide]
2120 nM	2.39%	NC(=O)c1cc(-c2ccc(F)cc2)c(OC2CCN(c3ccnc(C(F)(F)F)c3)C2)cn1 (stereo not drawn) [Compound 57, 4-(4-fluorophenyl)-5-((1-(2-(trifluoromethyl)pyridin-4-yl)pyrrolidin-3-yl)oxy)picolinamide]
> 30000 nM		Cc1ncc(OCCCOc2cnc(C#N)cc2-c2ccc(F)cc2)cn1 [Compound 64, 4-(4-fluorophenyl)-5-(3-((2-methylpyrimidin-5-yl)oxy)propoxy)picolinonitrile]
> 30000 nM		N#Cc1cc(-c2ccc(F)cc2)c(OCCCOc2ccnc(C(F)(F)F)c2)cn1 [Compound 67, 4-(4-fluorophenyl)-5-(3-((2-(trifluoromethyl)pyridin-4-yl)oxy)propoxy)picolinonitrile]
> 10000 nM	29%	Cc1ccc(OCCCOc2cnc(C#N)cc2-c2ccc(F)cc2)cn1 [Compound 68, 4-(4-fluorophenyl)-5-(3-((6-methylpyridin-3-yl)oxy)propoxy)picolinonitrile]
